The values below come from US9394297B2, “Amides as pim inhibitors” (AMGEN INC., priority 2012, dated 2016).

Structures are written as SMILES. Where a name gives a salt, the structure may show the parent alone. Read-outs that look alike come from different tables or passages of the source.

One experiment deals with Pim-2 (Homo sapiens (Human), UniProt Q9P1W9). Put plainly: Pim-Mn enzyme assay (HTRF, 384-well), Pim-2. The note with it: Pim-2 enzyme 0.5 pM, ATP 1.5 μM, BAD (S112) 0.5 μM, HTRF, 22-point curve; read-out: Pim-2-Mn IC50 IP. The format is biochemical. (In TR-FRET formats the signal depends on donor and acceptor labels being close together.)
Sequence of Pim-2 (Q9P1W9 whole entry): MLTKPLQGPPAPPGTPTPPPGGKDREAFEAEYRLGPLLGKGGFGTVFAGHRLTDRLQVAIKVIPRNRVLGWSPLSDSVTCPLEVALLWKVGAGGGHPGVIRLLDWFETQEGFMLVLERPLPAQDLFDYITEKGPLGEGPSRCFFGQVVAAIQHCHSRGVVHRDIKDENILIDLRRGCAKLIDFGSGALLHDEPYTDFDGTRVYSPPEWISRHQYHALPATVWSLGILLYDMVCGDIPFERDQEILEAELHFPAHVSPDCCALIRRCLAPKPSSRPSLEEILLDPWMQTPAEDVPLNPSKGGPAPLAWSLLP
A further experiment has as its target Pim-1 (Homo sapiens (Human), UniProt P11309). Description: Pim-Mn enzyme assay (HTRF, 384-well), Pim-1. The format is biochemical. The note with it: Pim-1 enzyme 5 pM, ATP 1.5 μM, BAD (S112) 0.5 μM, HTRF, 22-point curve; read-out: Pim-1-Mn IC50 IP.
The next experiment has as its system KMS-12-BM cell lines. Put plainly: KMS12 #2 flow cytometry assay (phospho-BAD Ser112). The note with it: read-out: KMS-12-Flow IC50 IP. Type of experiment: cell-based. (In flow cytometry, cells or beads pass a laser one at a time.)
[1] abbreviates: Homo sapiens, 110 min, KMS-12-BM cells, pBAD Ser112 by flow cytometry, 110 min with compound.

Sequence of Pim-1 (P11309 whole entry): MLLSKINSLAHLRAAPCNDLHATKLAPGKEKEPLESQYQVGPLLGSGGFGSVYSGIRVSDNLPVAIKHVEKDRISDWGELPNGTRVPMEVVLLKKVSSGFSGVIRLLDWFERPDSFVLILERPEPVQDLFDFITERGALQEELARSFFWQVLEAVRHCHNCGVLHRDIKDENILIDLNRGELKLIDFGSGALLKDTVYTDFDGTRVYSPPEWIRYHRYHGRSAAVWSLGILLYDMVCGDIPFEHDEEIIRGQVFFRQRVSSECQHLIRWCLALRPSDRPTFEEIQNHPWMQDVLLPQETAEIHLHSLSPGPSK

As to `Cc1nc2cccc(-c3cc4c([nH]3)C(COCc3ccccc3)NC4=O)c2nc1NC(C)(C)C` (racemic) [Example 468, (6R)-6-((benzyloxy)methyl)-2-(3-(tert-butylamino)-2-methyl-5-quinoxalinyl)-5,6-dihydropyrrolo[3,4-b]pyrrol-4(1H)-one and (6S)-6-((benzyloxy)methyl)-2-(3-(tert-butylamino)-2-methyl-5-quinoxalinyl)-5,6-dihydropyrrolo[3,4-b]pyrrol-4(1H)-one], the concentration for half-maximal inhibition (IC50) on Pim-2 stood at 7.94 nM; at Pim-1, 5.4 nM; in the experiment on KMS-12-BM cell lines (setting [1]), 3390 nM.

Regarding `Cc1nc2ccc(F)c(-c3cc4c([nH]3)C3(CC3)NC4=O)c2nc1NC1CC1` [Example 283, 2′-(3-(cyclopropylamino)-6-fluoro-2-methylquinoxalin-5-yl)-1′H-spiro[cyclopropane-1,6′-pyrrolo[3,4-b]pyrrol]-4′(5′H)-one], the values for the IC50 at Pim-2, on Pim-1 and in the experiment with KMS-12-BM cell lines (setting [1]) were 0.278 nM, 0.303 nM and 75.2 nM, respectively.

In the case of `Cc1nc2ccc(F)c(-c3cc4c([nH]3)[C@@H](C)NC4=O)c2nc1NC1CC1` [Example 284, (R)-2-(3-(cyclopropylamino)-6-fluoro-2-methylquinoxalin-5-yl)-6-methyl-5,6-dihydropyrrolo[3,4-b]pyrrol-4(1H)-one], the results for the IC50 at Pim-2, on Pim-1 and in the experiment with KMS-12-BM cell lines (setting [1]) were 0.0378 nM, 0.0282 nM and 18.6 nM, respectively.

As to `Cc1nc2cccc(-c3cc4c([nH]3)CCCNC4=O)c2nc1NC(C)(C)C` [Example 305, 2-(3-(tert-butylamino)-2-methylquinoxalin-5-yl)-5,6,7,8-tetrahydropyrrolo[3,2-c]azepin-4(1H)-one], the figures for the IC50 on Pim-1 and in the experiment on KMS-12-BM cell lines (setting [1]) were 2.63 nM and 1640 nM, respectively.

Regarding `CC(=O)N1CCc2[nH]c(-c3cccc4nc(C)c(NC(C)(C)C)nc34)cc2C1=O` [Example 315, 5-acetyl-2-(3-(tert-butylamino)-2-methylquinoxalin-5-yl)-6,7-dihydro-1H-pyrrolo[3,2-c]pyridin-4(5H)-one], the figures for the IC50 on Pim-1 and in the experiment with KMS-12-BM cell lines (setting [1]) were 35.2 nM and 895 nM, respectively.

In the case of `Cc1nc2cccc(-c3cc4c([nH]3)CCNC4=O)c2nc1NC(C)(C)CNC(=O)OC(C)(C)C` [Example 339, tert-butyl (2-methyl-2-((3-methyl-8-(4-oxo-4,5,6,7-tetrahydro-1H-pyrrolo[3,2-c]pyridin-2-yl)-2-quinoxalinyl)amino)propyl)carbamate], the half-maximal inhibitory concentration (IC50) on Pim-1 came out at 50.8 nM; in the experiment on KMS-12-BM cell lines (setting [1]), 2520 nM.

Turning to `C[C@H]1NC(=O)c2cc(-c3cccc4c(=O)[nH]c(N(C)C(C)(C)C)nc34)[nH]c21` [Example 407, 2-(tert-butyl(methyl)amino)-8-((6R)-6-methyl-4-oxo-1,4,5,6-tetrahydropyrrolo[3,4-b]pyrrol-2-yl)-4(3H)-quinazolinone], the half-maximal inhibitory concentration (IC50) was found to be 0.4 nM at Pim-2 and 144 nM in the experiment with KMS-12-BM cell lines (setting [1]).

With `Cc1nc2cccc(-c3cc4c([nH]3)CCNC4=O)c2nc1-c1cccnc1Cl` [Example 410, 2-(3-(2-chloro-3-pyridinyl)-2-methyl-5-quinoxalinyl)-1,5,6,7-tetrahydro-4H-pyrrolo[3,2-c]pyridin-4-one], the IC50 with KMS-12-BM cell lines (setting [1]) is 21700 nM.

`Cc1nc2cccc(-c3cc4c([nH]3)CCNC4=O)c2nc1-c1cnccc1Cl` [Example 412, 2-(3-(4-chloro-3-pyridinyl)-2-methyl-5-quinoxalinyl)-1,5,6,7-tetrahydro-4H-pyrrolo[3,2-c]pyridin-4-one]: the IC50 in the experiment with KMS-12-BM cell lines (setting [1]) turned out to be 21800 nM.

With `Cc1nc2cccc(-c3cc4c([nH]3)CCNC4=O)c2nc1-c1ccc(N)cc1Cl` [Example 413, 2-(3-(4-amino-2-chlorophenyl)-2-methyl-5-quinoxalinyl)-1,5,6,7-tetrahydro-4H-pyrrolo[3,2-c]pyridin-4-one], the IC50 with KMS-12-BM cell lines (setting [1]) was over 40000 nM.

In the case of `Cc1nc2cccc(-c3cc4c([nH]3)CCNC4=O)c2nc1-c1c(F)cccc1Cl` [Example 414, 2-(3-(2-chloro-6-fluorophenyl)-2-methyl-5-quinoxalinyl)-1,5,6,7-tetrahydro-4H-pyrrolo[3,2-c]pyridin-4-one], in the experiment with KMS-12-BM cell lines (setting [1]), the IC50 worked out at 5860 nM.

For the molecule `Cn1c(NC(C)(C)C)nc2c(-c3cc4c([nH]3)CNC4=O)cccc2c1=O` [Example 419, 2-(tert-butylamino)-3-methyl-8-(4-oxo-1,4,5,6-tetrahydropyrrolo[3,4-b]pyrrol-2-yl)-4(3H)-quinazolinone], the half-inhibitory concentration (IC50) in the experiment on KMS-12-BM cell lines (setting [1]) is 48.3 nM.

In the case of `Cc1nc2cccc(-c3cc4c([nH]3)CCNC4=O)c2nc1N[C@H]1C[C@@H](N)C1` [Example 435, 2-(3-((cis-3-aminocyclobutyl)amino)-2-methylquinoxalin-5-yl)-6,7-dihydro-1H-pyrrolo[3,2-c]pyridin-4(5H)-one hydrochloride], the 50% inhibitory concentration (IC50) was 0.347 nM on Pim-1 and 3000 nM in the experiment on KMS-12-BM cell lines (setting [1]).

As to `Cc1nc2cccc(-c3cc4c([nH]3)CCNC4=O)c2nc1N[C@H]1C[C@@H](N2CCOC2=O)C1` [Example 443, 3-((1s,3s)-3-((3-methyl-8-(4-oxo-4,5,6,7-tetrahydro-1H-pyrrolo[3,2-c]pyridin-2-yl)quinoxalin-2-yl)amino)cyclobutyl)oxazolidin-2-one], in the experiment with KMS-12-BM cell lines (KMS-12-BM cells, pBAD Ser112 by flow cytometry, 110 min with compound), the IC50 was over 40000 nM.

On to `Cc1nc2cccc(-c3cc4c([nH]3)CCNC4=O)c2nc1N[C@H]1C[C@@H](NCC(F)(F)F)C1` [Example 444], for which, in the experiment with KMS-12-BM cell lines (setting [1]), the concentration for half-maximal inhibition (IC50) turned out to be 471 nM.

Turning to `Cn1c(NC(C)(C)C)nc2c(-c3cc4c([nH]3)CCNC4=O)cccc2c1=O` [Example 448, 2-(tert-butylamino)-3-methyl-8-(4-oxo-4,5,6,7-tetrahydro-1H-pyrrolo[3,2-c]pyridin-2-yl)-4(3H)-quinazolinone], the IC50 on Pim-2 worked out at 0.169 nM; with KMS-12-BM cell lines (setting [1]), 30.8 nM.

Consider `Cn1c(NC(C)(C)C)nc2c(-c3cc4n(c3)CCNC4=O)cccc2c1=O` [Example 449, 2-(tert-butylamino)-3-methyl-8-(1-oxo-1,2,3,4-tetrahydropyrrolo[1,2-a]pyrazin-7-yl)-4(3H)-quinazolinone], for which the half-inhibitory concentration (IC50) in the experiment with KMS-12-BM cell lines (setting [1]) worked out at 429 nM.

As to `Cn1c(NC(C)(C)C)nc2c(-c3cc4c([nH]3)C3(CC3)NC4=O)cccc2c1=O` [Example 456, 2′-(2-(tert-butylamino)-3-methyl-4-oxo-3,4-dihydro-8-quinazolinyl)-1′H-spiro[cyclopropane-1,6′-pyrrolo[3,4-b]pyrrol]-4′(5′H)-one], the IC50 in the experiment with KMS-12-BM cell lines (setting [1]) was 29.4 nM.

On to `Cc1nc2cccc(-c3cc4c([nH]3)C(CCN)NC4=O)c2nc1NC(C)(C)C` (stereo not drawn) [Example 463, 6-(2-aminoethyl)-2-(3-(tert-butylamino)-2-methyl-5-quinoxalinyl)-5,6-dihydropyrrolo[3,4-b]pyrrol-4(1H)-one], for which, in the experiment on KMS-12-BM cell lines (setting [1]), the concentration for half-maximal inhibition (IC50) stood at 9 nM.

Take `C[C@H]1NC(=O)c2cc(-c3cccc4c(=O)n(C5CC5)c(NC(C)(C)C)nc34)[nH]c21` [Example 475, 2-(tert-butylamino)-3-cyclopropyl-8-((6R)-6-methyl-4-oxo-1,4,5,6-tetrahydropyrrolo[3,4-b]pyrrol-2-yl)-4(3H)-quinazolinone]: the IC50 with KMS-12-BM cell lines (setting [1]) is 28 nM.

In the case of `CCn1c(NC(C)(C)C)nc2c(-c3cc4c([nH]3)[C@@H](C)NC4=O)cccc2c1=O` [Example 481, (R)-2-(tert-butylamino)-3-ethyl-8-(6-methyl-4-oxo-1,4,5,6-tetrahydropyrrolo[3,4-b]pyrrol-2-yl)quinazolin-4(3H)-one], the IC50 with KMS-12-BM cell lines (Homo sapiens, KMS-12-BM, 110 min) was determined as 20 nM.

By IC50 is commonly meant the concentration that inhibits the measured activity by half.
